Assay results from ChEMBL document CHEMBL3632622, “Synthesis and biological evaluation of novel N-phenyl ureidobenzenesulfonate derivatives as potential anticancer agents. Part 2. Modulation of the ring B” (Eur J Med Chem, 2015).

Experiments:
M21 [1] = experiment: Antiproliferative activity against human M21 cells assessed as growth inhibition incubated for 48 hrs by sulforhodamine B assay; assay type: functional, cell-based; conditions: M21, 48 h
HT-29 = experiment: Antiproliferative activity against human HT-29 cells assessed as growth inhibition incubated for 48 hrs by sulforhodamine B assay; assay type: functional, cell-based; conditions: HT-29, 48 h
M21 [2] = experiment: Cell cycle arrest in human M21 cells assessed as accumulation at G0/G1 phase at 32 uM after 24 hrs by DAPI staining-based flow cytometry (reference value: 65.1%); assay type: functional
M21 [3] = experiment: Cell cycle arrest in human M21 cells assessed as accumulation at S phase at 32 uM after 24 hrs by DAPI staining-based flow cytometry (reference value: 17.4%); assay type: functional
[4] = Antiproliferative activity against human HT1080 cells assessed as growth inhibition incubated for 48 hrs by sulforhodamine B assay; assay type: functional, cell-based, HT-1080; conditions: Homo sapiens, HT-1080, 48 h; read-out: IC50
MCF7 = experiment: Antiproliferative activity against human MCF7 cells assessed as growth inhibition incubated for 48 hrs by sulforhodamine B assay; assay type: functional, cell-based; conditions: MCF7, 48 h
M21 [5] = experiment: Cell cycle arrest in human M21 cells assessed as accumulation at G2/M phase at 32 uM after 24 hrs by DAPI staining-based flow cytometry (reference value: 16%); assay type: functional
M21 [6] = experiment: Cell cycle arrest in human M21 cells assessed as accumulation at subG1 phase at 32 uM after 24 hrs by DAPI staining-based flow cytometry (reference value: 1.5%); assay type: functional
M21 [7] = experiment: Cell cycle arrest in human M21 cells assessed as accumulation at S phase at 40 uM after 24 hrs by DAPI staining-based flow cytometry (reference value: 17.4%); assay type: functional
M21 [8] = experiment: Cell cycle arrest in human M21 cells assessed as accumulation at G2/M phase at 40 uM after 24 hrs by DAPI staining-based flow cytometry (reference value: 16%); assay type: functional
M21 [9] = experiment: Cell cycle arrest in human M21 cells assessed as accumulation at G0/G1 phase at 40 uM after 24 hrs by DAPI staining-based flow cytometry (reference value: 65.1%); assay type: functional
M21 [10] = experiment: Cell cycle arrest in human M21 cells assessed as accumulation at subG1 phase at 40 uM after 24 hrs by DAPI staining-based flow cytometry (reference value: 1.5%); assay type: functional
M21 [11] = experiment: Cell cycle arrest in human M21 cells assessed as accumulation at S phase at 1.2 uM after 24 hrs by DAPI staining-based flow cytometry (reference value: 17.4%); assay type: functional
M21 [12] = experiment: Cell cycle arrest in human M21 cells assessed as accumulation at G0/G1 phase at 1.2 uM after 24 hrs by DAPI staining-based flow cytometry (reference value: 65.1%); assay type: functional
M21 [13] = experiment: Cell cycle arrest in human M21 cells assessed as accumulation at G2/M phase at 1.2 uM after 24 hrs by DAPI staining-based flow cytometry (reference value: 16%); assay type: functional
M21 [14] = experiment: Cell cycle arrest in human M21 cells assessed as accumulation at subG1 phase at 1.2 uM after 24 hrs by DAPI staining-based flow cytometry (reference value: 1.5%); assay type: functional
M21 [15] = experiment: Cell cycle arrest in human M21 cells assessed as accumulation at G0/G1 phase at 43 uM after 24 hrs by DAPI staining-based flow cytometry (reference value: 65.1%); assay type: functional
M21 [16] = experiment: Cell cycle arrest in human M21 cells assessed as accumulation at S phase at 43 uM after 24 hrs by DAPI staining-based flow cytometry (reference value: 17.4%); assay type: functional
M21 [17] = experiment: Cell cycle arrest in human M21 cells assessed as accumulation at subG1 phase at 43 uM after 24 hrs by DAPI staining-based flow cytometry (reference value: 1.5%); assay type: functional
M21 [18] = experiment: Cell cycle arrest in human M21 cells assessed as accumulation at G2/M phase at 43 uM after 24 hrs by DAPI staining-based flow cytometry (reference value: 16%); assay type: functional
M21 [19] = experiment: Cell cycle arrest in human M21 cells assessed as accumulation at subG1 phase at 22 uM after 24 hrs by DAPI staining-based flow cytometry (reference value: 1.5%); assay type: functional
M21 [20] = experiment: Cell cycle arrest in human M21 cells assessed as accumulation at S phase at 22 uM after 24 hrs by DAPI staining-based flow cytometry (reference value: 17.4%); assay type: functional
M21 [21] = experiment: Cell cycle arrest in human M21 cells assessed as accumulation at G2/M phase at 22 uM after 24 hrs by DAPI staining-based flow cytometry (reference value: 16%); assay type: functional
M21 [22] = experiment: Cell cycle arrest in human M21 cells assessed as accumulation at G0/G1 phase at 22 uM after 24 hrs by DAPI staining-based flow cytometry (reference value: 65.1%); assay type: functional
M21 [23] = experiment: Cell cycle arrest in human M21 cells assessed as accumulation at subG1 phase at 11 uM after 24 hrs by DAPI staining-based flow cytometry (reference value: 1.5%); assay type: functional
M21 [24] = experiment: Cell cycle arrest in human M21 cells assessed as accumulation at G2/M phase at 11 uM after 24 hrs by DAPI staining-based flow cytometry (reference value: 16%); assay type: functional
M21 [25] = experiment: Cell cycle arrest in human M21 cells assessed as accumulation at G0/G1 phase at 11 uM after 24 hrs by DAPI staining-based flow cytometry (reference value: 65.1%); assay type: functional
M21 [26] = experiment: Cell cycle arrest in human M21 cells assessed as accumulation at S phase at 11 uM after 24 hrs by DAPI staining-based flow cytometry (reference value: 17.4%); assay type: functional
M21 [27] = experiment: Cell cycle arrest in human M21 cells assessed as accumulation at S phase at 25 uM after 24 hrs by DAPI staining-based flow cytometry (reference value: 17.4%); assay type: functional
M21 [28] = experiment: Cell cycle arrest in human M21 cells assessed as accumulation at G0/G1 phase at 25 uM after 24 hrs by DAPI staining-based flow cytometry (reference value: 65.1%); assay type: functional
M21 [29] = experiment: Cell cycle arrest in human M21 cells assessed as accumulation at G2/M phase at 25 uM after 24 hrs by DAPI staining-based flow cytometry (reference value: 16%); assay type: functional
M21 [30] = experiment: Cell cycle arrest in human M21 cells assessed as accumulation at subG1 phase at 25 uM after 24 hrs by DAPI staining-based flow cytometry (reference value: 1.5%); assay type: functional
M21 [31] = experiment: Cell cycle arrest in human M21 cells assessed as accumulation at subG1 phase at 49 uM after 24 hrs by DAPI staining-based flow cytometry (reference value: 1.5%); assay type: functional
M21 [32] = experiment: Cell cycle arrest in human M21 cells assessed as accumulation at S phase at 49 uM after 24 hrs by DAPI staining-based flow cytometry (reference value: 17.4%); assay type: functional
M21 [33] = experiment: Cell cycle arrest in human M21 cells assessed as accumulation at G2/M phase at 49 uM after 24 hrs by DAPI staining-based flow cytometry (reference value: 16%); assay type: functional
M21 [34] = experiment: Cell cycle arrest in human M21 cells assessed as accumulation at G0/G1 phase at 49 uM after 24 hrs by DAPI staining-based flow cytometry (reference value: 65.1%); assay type: functional
M21 [35] = experiment: Cell cycle arrest in human M21 cells assessed as accumulation at G2/M phase at 3.8 uM after 24 hrs by DAPI staining-based flow cytometry (reference value: 16%); assay type: functional
M21 [36] = experiment: Cell cycle arrest in human M21 cells assessed as accumulation at subG1 phase at 3.8 uM after 24 hrs by DAPI staining-based flow cytometry (reference value: 1.5%); assay type: functional
M21 [37] = experiment: Cell cycle arrest in human M21 cells assessed as accumulation at G0/G1 phase at 3.8 uM after 24 hrs by DAPI staining-based flow cytometry (reference value: 65.1%); assay type: functional
M21 [38] = experiment: Cell cycle arrest in human M21 cells assessed as accumulation at S phase at 3.8 uM after 24 hrs by DAPI staining-based flow cytometry (reference value: 17.4%); assay type: functional
M21 [39] = experiment: Cell cycle arrest in human M21 cells assessed as accumulation at G0/G1 phase at 42 uM after 24 hrs by DAPI staining-based flow cytometry (reference value: 65.1%); assay type: functional
M21 [40] = experiment: Cell cycle arrest in human M21 cells assessed as accumulation at subG1 phase at 42 uM after 24 hrs by DAPI staining-based flow cytometry (reference value: 1.5%); assay type: functional
M21 [41] = experiment: Cell cycle arrest in human M21 cells assessed as accumulation at S phase at 42 uM after 24 hrs by DAPI staining-based flow cytometry (reference value: 17.4%); assay type: functional
M21 [42] = experiment: Cell cycle arrest in human M21 cells assessed as accumulation at G2/M phase at 42 uM after 24 hrs by DAPI staining-based flow cytometry (reference value: 16%); assay type: functional
M21 [43] = experiment: Cell cycle arrest in human M21 cells assessed as accumulation at subG1 phase at 7.5 uM after 24 hrs by DAPI staining-based flow cytometry (reference value: 1.5%); assay type: functional
M21 [44] = experiment: Cell cycle arrest in human M21 cells assessed as accumulation at G0/G1 phase at 7.5 uM after 24 hrs by DAPI staining-based flow cytometry (reference value: 65.1%); assay type: functional
M21 [45] = experiment: Cell cycle arrest in human M21 cells assessed as accumulation at S phase at 7.5 uM after 24 hrs by DAPI staining-based flow cytometry (reference value: 17.4%); assay type: functional
M21 [46] = experiment: Cell cycle arrest in human M21 cells assessed as accumulation at G2/M phase at 7.5 uM after 24 hrs by DAPI staining-based flow cytometry (reference value: 16%); assay type: functional
M21 [47] = experiment: Cell cycle arrest in human M21 cells assessed as accumulation at G0/G1 phase at 1.7 uM after 24 hrs by DAPI staining-based flow cytometry (reference value: 65.1%); assay type: functional
M21 [48] = experiment: Cell cycle arrest in human M21 cells assessed as accumulation at G2/M phase at 1.7 uM after 24 hrs by DAPI staining-based flow cytometry (reference value: 16%); assay type: functional
M21 [49] = experiment: Cell cycle arrest in human M21 cells assessed as accumulation at S phase at 1.7 uM after 24 hrs by DAPI staining-based flow cytometry (reference value: 17.4%); assay type: functional
M21 [50] = experiment: Cell cycle arrest in human M21 cells assessed as accumulation at subG1 phase at 1.7 uM after 24 hrs by DAPI staining-based flow cytometry (reference value: 1.5%); assay type: functional

SMILES	IC50 (HT-29)	IC50 (MCF7)	IC50 (M21 [1])	IC50 [4]	other results
CCOc1cccc(OS(=O)(=O)c2ccc(NC(=O)NCCCl)cc2)c1	3.2 µM	3.3 µM	2.4 µM	3.3 µM	Activity (M21 [23]): 8.4%; Activity (M21 [24]): 55.9%; Activity (M21 [25]): 22.2%; Activity (M21 [26]): 13.5%
COc1cccc(OS(=O)(=O)c2ccc(NC(=O)NCCCl)cc2)c1	3.8 µM	4.2 µM	3.6 µM	3.1 µM	Activity (M21 [27]): 6.3%; Activity (M21 [28]): 2.5%; Activity (M21 [29]): 87.7%; Activity (M21 [30]): 3.5%
CCOc1ccc(OS(=O)(=O)c2ccc(NC(=O)NCCCl)cc2)cc1	7.8 µM	9.5 µM	8.3 µM	8.3 µM	Activity (M21 [31]): 3.5%; Activity (M21 [32]): 8.2%; Activity (M21 [33]): 74.9%; Activity (M21 [34]): 13.4%
O=C(NCCCl)Nc1ccc(S(=O)(=O)Oc2cc(Cl)cc(Cl)c2)cc1	0.55 µM	1 µM	0.51 µM	1.1 µM	Activity (M21 [35]): 84.3%; Activity (M21 [36]): 7.2%; Activity (M21 [37]): 2.5%; Activity (M21 [38]): 6%
COc1cc(OC)cc(OS(=O)(=O)c2ccc(NC(=O)NCCCl)cc2)c1	1.1 µM	2 µM	1.1 µM	1.5 µM	Activity (M21 [43]): 11.4%; Activity (M21 [44]): 9.3%; Activity (M21 [45]): 5.2%; Activity (M21 [46]): 74.1%

The next lines start with results.

IC50 (HT-29)	IC50 (MCF7)	SMILES	IC50 (M21 [1])	IC50 [4]	other results
4.8 µM	5.7 µM	O=C(NCCCl)Nc1ccc(S(=O)(=O)Oc2cc(F)cc(F)c2)cc1	5 µM	5.7 µM	Activity (M21 [2]): 7.4%; Activity (M21 [3]): 10.2%; Activity (M21 [5]): 75.7%; Activity (M21 [6]): 6.7%
8.3 µM	9.4 µM	O=C(NCCCl)Nc1ccc(S(=O)(=O)Oc2ccc(Br)cc2)cc1	8.1 µM	9.6 µM	Activity (M21 [7]): 4.4%; Activity (M21 [8]): 76.1%; Activity (M21 [9]): 12%; Activity (M21 [10]): 7.5%
0.3 µM	0.4 µM	O=C(NCCCl)Nc1ccc(S(=O)(=O)Oc2cc(Br)cc(Br)c2)cc1	0.24 µM	0.4 µM	Activity (M21 [11]): 6.9%; Activity (M21 [12]): 2.6%; Activity (M21 [13]): 83.4%; Activity (M21 [14]): 7.1%
6.5 µM	7.1 µM	CCCCOc1ccc(OS(=O)(=O)c2ccc(NC(=O)NCCCl)cc2)cc1	7.7 µM	3.4 µM	Activity (M21 [15]): 39.7%; Activity (M21 [16]): 9.1%; Activity (M21 [17]): 8.3%; Activity (M21 [18]): 42.9%
3.4 µM	3.9 µM	CCCc1cccc(OS(=O)(=O)c2ccc(NC(=O)NCCCl)cc2)c1	3.3 µM	2.6 µM	Activity (M21 [19]): 6%; Activity (M21 [20]): 5.8%; Activity (M21 [21]): 78.3%; Activity (M21 [22]): 9.9%
7 µM	8.9 µM	O=C(NCCCl)Nc1ccc(S(=O)(=O)Oc2ccc(F)c(F)c2)cc1	7.3 µM	8.1 µM	Activity (M21 [39]): 11.6%; Activity (M21 [40]): 7.6%; Activity (M21 [41]): 18.3%; Activity (M21 [42]): 62.5%
0.5 µM	0.66 µM	COc1cc(OS(=O)(=O)c2ccc(NC(=O)NCCCl)cc2)cc(OC)c1OC	0.47 µM	0.64 µM	Activity (M21 [47]): 15.6%; Activity (M21 [48]): 66.1%; Activity (M21 [49]): 9%; Activity (M21 [50]): 9.3%
